Like-named read-outs stand apart in the source and are kept apart here.
Legend:
[1] = tested on: HIV-1 (IIIB) in MT-4 cells; experiment: MT-4 HIV assay; format: cell-based
Procedure, shortened: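 MT-4 cells infected with HIV-1 IIIB (1:250 stock dilution) were incubated with 1:3 serially diluted compounds in RPMI with 10% FBS for 5 days at 37 °C. Cell Titer Glo luminescence was the readout. Plates included mock-infected wells, no-drug wells and 5 uM AZT controls.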

[2] = Procedure, shortened: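 Test compounds at 1 uM incubated in duplicate with dog, rat and human liver microsomes (0.5 mg/mL protein) plus NADPH-regenerating system; sampled at 2, 12, 25, 45 and 65 minutes. Parent remaining monitored by LC/MS/MS; Clint calculated from in vitro t1/2.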
[3] = Human immunodeficiency virus 1, MT4, 120 h, HIV-1 (IIIB), MT-4 cells, 5 days, Cell Titer Glo, read-out: EC50
[4] = human liver microsomes 0.5 mg/mL, 1 uM compound, NADPH
[5] = rat liver microsomes 0.5 mg/mL, 1 uM compound, NADPH

Row | SMILES | EC50 [1, 3] | Human Pred Cl. ([2]; human, microsomes) | Rat. Pred. Cl. ([2]; rat, microsomes) | EC50 ([1]; Human immunodeficiency virus 1, MT4, 120 h) | Human Pred Cl. [2, 4] | Rat. Pred. Cl. [2, 5] | EC50 ([1]; HIV-1 (IIIB), MT-4 cells, 5 days, Cell Titer Glo, read-out: EC50)
1 | COC(=O)N[C@H](C(=O)N[C@@H](Cc1ccc(C#Cc2cnc(N3CC4CCC(C3)N4C3COC3)nc2)cc1)[C@@H](O)CN(Cc1c(F)cc(-c2ccn(C(F)F)n2)cc1F)NC(=O)[C@@H](NC(=O)OC)C(C)(C)C)C(C)(C)C [Example 121, Methyl ((5S,8S,9S,14S)-5-(tert-butyl)-11-(4-(1-(difluoromethyl)-1H-pyrazol-3-yl)-2,6-difluorobenzyl)-9-hydroxy-15,15-dimethyl-8-(4-((2-(8-(oxetan-3-yl)-3,8-diazabicyclo[3.2.1]octan-3-yl)pyrimidin-5-yl)ethynyl)benzyl)-3,6,13-trioxo-2-oxa-4,7,11,12-tetraazahexadecan-14-yl)carbamate] | 3.31 nM | <0.11 L/H/kg | <0.18 L/H/kg | – | – | – | –
2 | COC(=O)N[C@H](C(=O)N[C@@H](Cc1ccc(C#Cc2cnc(N3CC4CCC(C3)N4C3COC3)nc2)cc1)[C@@H](O)CN(Cc1ccc(-c2ccn(C(F)F)n2)cc1)NC(=O)[C@@H](NC(=O)OC)C(C)(C)C(F)(F)F)C(C)(C)C(F)(F)F [Example 122, Methyl ((5S,8S,9S,14S)-11-(4-(1-(difluoromethyl)-1H-pyrazol-3-yl)benzyl)-16,16,16-trifluoro-9-hydroxy-15,15-dimethyl-8-(4-((2-(8-(oxetan-3-yl)-3,8-diazabicyclo[3.2.1]octan-3-yl)pyrimidin-5-yl)ethynyl)benzyl)-3,6,13-trioxo-5-(1,1,1-trifluoro-2-methylpropan-2-yl)-2-oxa-4,7,11,12-tetraazahexadecan-14-yl)carbamate] | 4.57 nM | <0.11 L/H/kg | – | – | – | – | –
3 | COC(=O)N[C@H](C(=O)N[C@@H](Cc1ccc(C#Cc2cnc(N3CCNC(=O)C3)nc2)cc1)[C@@H](O)CN(Cc1c(F)cc(-c2ccn(C(F)F)n2)cc1F)NC(=O)[C@@H](NC(=O)OC)C(C)(C)C(F)(F)F)C(C)(C)C(F)(F)F [Example 123, Methyl ((5S,8S,9S,14S)-11-(4-(1-(difluoromethyl)-1H-pyrazol-3-yl)-2,6-difluorobenzyl)-16,16,16-trifluoro-9-hydroxy-15,15-dimethyl-3,6,3-trioxo-8-(4-((2 (3-oxopiperazin-1-yl)pyrimidin-5-yl)ethynyl)benzyl)-5-(1,1,1-trifluoro-2-methylpropan-2-yl)-2-oxa-4,7,11,12-tetraazahexadecan-14-yl)carbamate] | – | – | – | 4.16 nM | <0.11 L/H/kg | <0.18 L/H/kg | –
4 | COCCN1C2CCC1CN(c1ccc(C#Cc3ccc(C[C@H](NC(=O)[C@@H](NC(=O)OC)C(C)(C)C(F)(F)F)[C@@H](O)CN(Cc4c(F)cc(-c5ccn(C(F)F)n5)cc4F)NC(=O)[C@@H](NC(=O)OC)C(C)(C)C(F)(F)F)cc3)cn1)C2 [Example 124, Methyl ((5S,8S,9S,14S)-11-(4-(1-(difluoromethyl)-1H-pyrazol-3-yl)-2,6-difluorobenzyl)-16,16,16-trifluoro-9-hydroxy-8-(4-((6-(8-(2-methoxyethyl)-3,8-diazabicyclo[3.2.1]octan-3-yl)pyridin-3-yl)ethynyl)benzyl)-15,15-dimethyl-3,6,13-trioxo-5-(1,1,1-trifluoro-2-methylpropan-2-yl)-2-oxa-4,7,11,12-tetraazahexadecan-14-yl)carbamate] | 6.32 nM | <0.11 L/H/kg | 0.5 L/H/kg | – | – | – | –
5 | COC(=O)N[C@H](C(=O)N[C@@H](Cc1ccc(C#Cc2ccc(N3CC4CCC(C3)N4C3COC3)nc2)cc1)[C@@H](O)CN(Cc1c(F)cc(-c2cc[nH]n2)cc1F)NC(=O)[C@@H](NC(=O)OC)C(C)(C)C(F)(F)F)C(C)(C)C(F)(F)F [Example 126, Methyl ((5S,8S,9S,14S)-11-(2,6-difluoro-4-(1H-pyrazol-3-yl)benzyl)-16,16,16-trifluoro-9-hydroxy-15,15-dimethyl-8-(4-((6-(8-(oxetan-3-yl)-3,8-diazabicyclo[3.2.1]octan-3-yl)pyridin-3-yl)ethynyl)benzyl)-3,6,13-trioxo-5-(1,1,1-trifluoro-2-methylpropan-2-yl)-2-oxa-4,7,11,12-tetraazahexadecan-14-yl)carbamate] | 4.13 nM | 0.45 L/H/kg | <0.18 L/H/kg | – | – | – | –
6 | COC(=O)N[C@H](C(=O)N[C@@H](Cc1ccc(C#Cc2ccc(N3CC4CCC(C3)N4C3COC3)nc2)cc1)[C@@H](O)CN(Cc1c(F)cc(-c2cc(OC3COC3)ccn2)cc1F)NC(=O)[C@@H](NC(=O)OC)C(C)(C)C(F)(F)F)C(C)(C)C(F)(F)F [Example 127, Methyl ((5S,8S,9S,14S)-11-(2,6-difluoro-4-(4-(oxetan-3-yloxy)pyridin-2-yl)benzyl)-16,16,16-trifluoro-9-hydroxy-15,15-dimethyl-8-(4-((6-(8-(oxetan-3-yl)-3,8-diazabicyclo[3.2.1]octan-3-yl)pyridin-3-yl)ethynyl)benzyl)-3,6,13-trioxo-5-(1,1,1-trifluoro-2-methylpropan-2-yl)-2-oxa-4,7,11,12-tetraazahexadecan-14-yl)carbamate] | 4.19 nM | 0.54 L/H/kg | 1.3 L/H/kg | – | – | – | –
7 | COC(=O)N[C@H](C(=O)N[C@@H](Cc1ccc(C#Cc2ccc(N3CC4CCC(C3)N4C3COC3)nc2)cc1)[C@@H](O)CN(Cc1c(F)cc(-c2nnc(C3CC3)o2)cc1F)NC(=O)[C@@H](NC(=O)OC)C(C)(C)C(F)(F)F)C(C)(C)C(F)(F)F [Example 129, Methyl ((5S,8S,9S,14S)-11-(4-(5-cyclopropyl-1,3,4-oxadiazol-2-yl)-2,6-difluorobenzyl)-16,16,16-trifluoro-9-hydroxy-15,15-dimethyl-8-(4-((6-(8-(oxetan-3-yl)-3,8-diazabicyclo[3.2.1]octan-3-yl)pyridin-3-yl)ethynyl)benzyl)-3,6,13-trioxo-5-(1,1,1-trifluoro-2-methylpropan-2-yl)-2-oxa-4,7,11,12-tetraazahexadecan-14-yl)carbamate] | 3.62 nM | <0.11 L/H/kg | – | – | – | – | –
8 | COC(=O)N[C@H](C(=O)NNC[C@H](O)[C@H](Cc1ccc(C#Cc2cnc(N3CC4CCC(C3)N4C3COC3)nc2)cc1)NC(=O)[C@@H](NC(=O)OCCc1c(F)cc(-c2cn(C34CC(C3)C4)nn2)cc1F)C(C)(C)C(F)(F)F)C(C)(C)C(F)(F)F [Example 131, Methyl ((5S,8S,9S,14S)-1-(4-(1-(bicyclo[1.1.1]pentan-1-yl)-1H-1,2,3-triazol-4-yl)-2,6-difluorobenzyl)-16,16,16-trifluoro-9-hydroxy-15,15-dimethyl-8-(4-((2-(8-(oxetan-3-yl)-3,8-diazabicyclo[3.2.1]octan-3-yl)pyrimidin-5-yl)ethynyl)benzyl)-3,6,13-trioxo-5-(1,1,1-trifluoro-2-methylpropan-2-yl)-2-oxa-4,7,11,12-tetraazahexadecan-14-yl)carbamate] | 5.24 nM | <0.11 L/H/kg | – | – | – | – | –
9 | COC(=O)N[C@H](C(=O)N[C@@H](Cc1ccc(C#Cc2cnc(N3CC4CCC(C3)N4C3COC3)nc2)cc1)[C@@H](O)CN(Cc1c(F)cc(-c2cn(C(F)F)cn2)cc1F)NC(=O)[C@@H](NC(=O)OC)C(C)(C)C(F)(F)F)C(C)(C)C(F)(F)F [Example 133, Methyl ((5S,10S,11S,14S)-8-(4-(1-(difluoromethyl)-1H-imidazol-4-yl)-2,6-difluorobenzyl)-16,16,16-trifluoro-10-hydroxy-15,15-dimethyl-11-(4-((2-(8-(oxetan-3-yl)-3,8-diazabicyclo[3.2.]octan-3-yl)pyrimidin-5-yl)ethynyl)benzyl)-3,6,13-trioxo-5-(1,1,1-trifluoro-2-methylpropan-2-yl)-2-oxa-4,7,8,12-tetraazahexadecan-14-yl)carbamate] | – | – | – | – | <0.11 L/H/kg | <0.18 L/H/kg | 3.44 nM
10 | COC(=O)N[C@H](C(=O)N[C@@H](Cc1ccc(C#Cc2ccc(-c3cn4c(n3)CN(C)C(=O)C4)cc2)cc1)[C@@H](O)CN(Cc1c(F)cc(-c2ccn(C(F)F)n2)cc1F)NC(=O)[C@@H](NC(=O)OC)C(C)(C)C(F)(F)F)C(C)(C)C(F)(F)F [Example 134, Methyl ((5S,8S,9S,14S)-11-(4-(1-(difluoromethyl)-1H-pyrazol-3-yl)-2,6-difluorobenzyl)-16,16,16-trifluoro-9-hydroxy-15,15-dimethyl-8-(4-((4-(7-methyl-6-oxo-5,6,7,8-tetrahydroimidazo[1,2-a]pyrazin-2-yl)phenyl)ethynyl)benzyl)-3,6,13-trioxo-5-(1,1,1-trifluoro-2-methylpropan-2-yl)-2-oxa-4,7,11,12-tetraazahexadecan-14-yl)carbamate] | 5.52 nM | – | – | – | <0.11 L/H/kg | <0.18 L/H/kg | –

Reference: patent publication US10294234B2, “HIV inhibitor compounds” (priority 2017, dated 2019)
